Reference: ChEMBL document CHEMBL4376846, “Peptide-β-lactam Inhibitors of Dengue and West Nile Virus NS2B-NS3 Protease Display Two Distinct Binding Modes” (J Med Chem, 2020)
pEC50, pIC50: −log10 of the molar value. Active and inactive are the calls of the source. No cut-off for these calls is given here. Peptide text beside a SMILES is read from it. * marks the point of attachment. Bz = O=C(c1ccccc1)*

Key:
[1] = target: Genome polyprotein (West Nile virus) (UniProt P06935); experiment: Inhibition of West Nile virus NS2B-NS3 protease at 50 uM using 2-Abz-Nle-Lys-Arg-Arg-Ser-(3-NO2)-Tyr-NH2 FRET substrate preincubated for 15 mins followed by substrate addition measured after 15 mins by fluorimetric analysis relative to control
Genome polyprotein [2] = target: T1, Genome polyprotein (dengue virus type 2, UniProt P29990); experiment: Inhibition of Dengue virus NS2B-NS3 protease using 2-Abz-Nle-Lys-Arg-Arg-Ser-(3-NO2)-Tyr-NH2 FRET substrate preincubated for 15 mins followed by substrate addition measured after 15 mins by fluorimetric analysis
Trypsin (Homo sapiens) = Trypsin (Homo sapiens) (UniProt P07477+P07478+P35030); experiment: Inhibition of trypsin (unknown origin) at 50 uM using Boc-Val-Pro-Arg-AMC as substrate preincubated for 15 mins followed by substrate addition measured after 10 mins by fluorimetric analysis relative to control; type: protein assay
[3] = target: Genome polyprotein (dengue virus type 2) (UniProt P29990); experiment: Inhibition of Dengue virus NS2B-NS3 protease at 50 uM using 2-Abz-Nle-Lys-Arg-Arg-Ser-(3-NO2)-Tyr-NH2 FRET substrate preincubated for 15 mins followed by substrate addition measured after 15 mins by fluorimetric analysis relative to control
[4] = target: Prothrombin (Homo sapiens) (UniProt P00734); experiment: Inhibition of thrombin (unknown origin) at 50 uM using Boc-Val-Pro-Arg-AMC as substrate preincubated for 15 mins followed by substrate addition measured after 10 mins by fluorimetric analysis relative to control
Genome polyprotein [5] = target: Genome polyprotein (West Nile virus, UniProt P06935); experiment: Inhibition of West Nile virus NS2B-NS3 protease using 2-Abz-Nle-Lys-Arg-Arg-Ser-(3-NO2)-Tyr-NH2 FRET substrate preincubated for 15 mins followed by substrate addition measured after 15 mins by fluorimetric analysis
dengue virus type 2 [6] = experiment: Antiviral activity against Dengue virus serotype 2 infected in HuH7 cells assessed as reduction in viral titer after 48 hrs by plaque assay; type: functional, organism-based; details: Huh-7, 48 h
Huh-7 = experiment: Cytotoxicity against human HuH7 cells infected with Dengue virus serotype 2 assessed as effect on cell viability up to 50 uM after 48 hrs by Celltiter-blue assay; type: cell-based; details: huh-7, 48 h
[7] = target: Genome polyprotein (dengue virus type 2) (UniProt P29990); experiment: Binding affinity to Dengue virus NS2B-NS3 protease assessed as presence of lysine and benzyloxy-phenylglycine residues in active site
Genome polyprotein [8] = target: T1, Genome polyprotein; experiment: Substrate activity at Dengue virus NS2B-NS3 protease assessed as time taken for peptide cleavage at 100 uM incubated for 11 hrs by HPLC-ESI/MS analysis; type: ADME
dengue virus type 2 [9] = experiment: Binding affinity to Dengue virus serotype 2 […]-NS3 protease S135A mutant expressed in Escherichia coli BL21 lambda (DE3) cells assessed as effect on intrinsic fluorescence of tryptophan at active site up to 20 uM by tryptophan quenching assay
[10] = target: Genome polyprotein (dengue virus type 2) (UniProt P29990); experiment: Competitive inhibition of Dengue virus NS2B-NS3 protease assessed as increase in intrinsic fluorescence of tryptophan at active site up to 20 uM measured after 5 mins by tryptophan quenching assay
[11] = target: Genome polyprotein (dengue virus type 2) (UniProt P29990); experiment: (§1) Reversible inhibition of Dengue virus NS2B-NS3 protease at 60 uM preincubated for 3 to 6 hrs followed by 2-Abz-Nle-Lys-Arg-Arg-Ser-(3-NO2)-Tyr-NH2 FRET substrate addition followed by further compound dilution to 1.7 uM and measured every 30 mins for 2 hrs by dilution experiment based fluorimetric analysis
[12] = target: Genome polyprotein (dengue virus type 2) (UniProt P29990); experiment: Competitive inhibition of Dengue virus NS2B-NS3 protease assessed as increase in intrinsic fluorescence of tryptophan at active site measured after 5 mins in presence of quencher by tryptophan quenching assay
dengue virus type 2 [13] = experiment: Binding affinity to Dengue virus serotype 2 […]-NS3 protease S135A mutant expressed in Escherichia coli BL21 lambda (DE3) cells assessed as effect on intrinsic fluorescence of tryptophan at active site at 20 to 60 uM measured after 5 mins in presence of quencher by tryptophan quenching assay
[14] = target: Genome polyprotein (dengue virus type 2) (UniProt P29990); experiment: Reversible inhibition of Dengue virus NS2B-NS3 protease assessed as increase in intrinsic fluorescence of tryptophan at active site at 60 uM pretreated for 16 hrs followed by quencher addition measured after 5 mins by tryptophan quenching assay
[15] = target: Genome polyprotein (dengue virus type 2) (UniProt P29990); experiment: as §1, with “Time dependent irreversible” for “Reversible”
[16] = target: Genome polyprotein (dengue virus type 2) (UniProt P29990); experiment: Competitive inhibition of Dengue virus NS2B-NS3 protease assessed as increase in intrinsic fluorescence of tryptophan at active site at 20 to 60 uM measured after 5 mins in presence of quencher by tryptophan quenching assay

Compound: N=C(N)NCCC[C@H](NC(=O)c1ccccc1)C(=O)N[C@@H](CCCCN)C(=O)N[C@@H](C(=O)N[C@@H]1CN(c2cccc(F)c2)C1=O)c1ccc(OCc2ccccc2)cc1
- inhibition [1]: 61.6%
- pIC50 (Genome polyprotein [2]): 4.91
- inhibition (Trypsin (Homo sapiens)): < 20%
- inhibition [3]: 80.8%
- inhibition [4]: < 20%

Compound: N=C(N)NCCC[C@H](NC(=O)[C@H](CCCCN)NC(=O)c1ccccc1)C(=O)N[C@H]1CN(c2ccccc2)C1=O
- inhibition [1]: < 20%
- inhibition [3]: < 20%

Compound: N=C(N)NCCC[C@H](NC(=O)[C@H](CCCCN)NC(=O)c1ccccc1)C(=O)N[C@@H]1CN(c2ccccc2)C1=O
- inhibition [1]: < 20%
- inhibition [3]: < 20%

Compound: Cc1ccc(N2C[C@@H](NC(=O)[C@H](NC(=O)[C@H](CCCCN)NC(=O)[C@H](CCCNC(=N)N)NC(=O)c3ccccc3)c3ccc(OCc4ccccc4)cc3)C2=O)cc1
- inhibition [1]: 52.9%
- pIC50 (Genome polyprotein [2]): 4.80
- inhibition (Trypsin (Homo sapiens)): < 20%
- inhibition [3]: 73.5%
- inhibition [4]: < 20%

Compound: CCCC[C@H](NC(=O)[C@H](CCCNC(=N)N)NC(=O)c1ccccc1)C(=O)N[C@H]1CN(c2ccccc2)C1=O
- inhibition [1]: < 20%
- inhibition (Trypsin (Homo sapiens)): > 20%
- inhibition [3]: < 20%

Compound: CCCC[C@H](NC(=O)[C@H](CCCNC(=N)N)NC(=O)c1ccccc1)C(=O)N[C@@H]1CN(c2ccccc2)C1=O
- inhibition [1]: < 20%
- inhibition [3]: < 20%

Compound: N=C(N)NCCC[C@H](NC(=O)c1ccccc1)C(=O)N[C@@H](CCCCN)C(=O)N[C@@H](C(=O)N[C@@H]1CN(c2ccc(F)cc2)C1=O)c1ccc(OCc2ccccc2)cc1
- inhibition [1]: 43.4%
- inhibition (Trypsin (Homo sapiens)): < 20%
- inhibition [3]: 65.5%
- inhibition [4]: < 20%

Compound: NCCCC[C@H](NC(=O)c1ccccc1)C(=O)N[C@@H](CCCCN)C(=O)N[C@H]1CN(c2ccccc2)C1=O
- inhibition [1]: < 20%
- inhibition [3]: < 20%

Compound: N=C(N)NCCC[C@H](NC(=O)c1ccccc1)C(=O)N[C@@H](CCCCN)C(=O)N[C@H]1CN(c2ccccc2)C1=O
- inhibition [1]: 81.4%
- inhibition [3]: 57.1%
- pIC50 (Genome polyprotein [5]): 4.65

Compound: N=C(N)NCCC[C@H](NC(=O)c1ccccc1)C(=O)N[C@@H](CCCCN)C(=O)N[C@@H]1CN(c2ccccc2)C1=O
- inhibition [1]: 27.8%
- pIC50 (Genome polyprotein [2]): 4.75
- inhibition [3]: 71.6%

Compound: N=C(N)NCCC[C@H](NC(=O)c1ccccc1)C(=O)N[C@@H](CCCCN)C(=O)N[C@@H](C(=O)N[C@H]1CN(c2cccc(F)c2)C1=O)c1ccc(OCc2ccccc2)cc1
- inhibition [1]: 64.1%
- pIC50 (Genome polyprotein [2]): 5.72
- inhibition [3]: 96.8%

Compound: Cc1cccc(N2C[C@H](NC(=O)[C@H](NC(=O)[C@H](CCCCN)NC(=O)[C@H](CCCNC(=N)N)NC(=O)c3ccccc3)c3ccc(OCc4ccccc4)cc3)C2=O)c1
- inhibition [1]: 46.8%
- pIC50 (Genome polyprotein [2]): 5.55
- inhibition [3]: 96.5%

Compound: N=C(N)NCCC[C@H](NC(=O)c1ccccc1)C(=O)N[C@@H](CCCCN)C(=O)N[C@@H](C(=O)N[C@H]1CN(c2ccc(F)cc2)C1=O)c1ccc(OCc2ccccc2)cc1
- inhibition [1]: 60.9%
- pIC50 (Genome polyprotein [2]): 5.60
- pEC50 (dengue virus type 2 [6]): 5.39
- inhibition [3]: 96.3%
- Activity (Huh-7): Non-Toxic

Compound: CCCC[C@H](NC(=O)[C@H](CCCCN)NC(=O)c1ccccc1)C(=O)N[C@@H]1CN(c2ccccc2)C1=O
- inhibition [1]: 24.4%
- inhibition (Trypsin (Homo sapiens)): > 20%
- inhibition [3]: < 20%

Compound: N=C(N)NCCC[C@H](NC(=O)c1ccccc1)C(=O)N[C@@H](CCCCN)C(=O)O (Bz-Arg-Lys-OH)
- Activity [7]: Active

Compound: CCCC[C@H](NC(=O)[C@H](CCCCN)NC(=O)c1ccccc1)C(=O)N[C@H]1CN(c2ccccc2)C1=O
- inhibition [1]: < 20%
- inhibition [3]: < 20%

Compound: Cc1cccc(N2C[C@@H](NC(=O)[C@H](NC(=O)[C@H](CCCCN)NC(=O)[C@H](CCCNC(=N)N)NC(=O)c3ccccc3)c3ccc(OCc4ccccc4)cc3)C2=O)c1
- inhibition [1]: 45.1%
- pIC50 (Genome polyprotein [2]): 4.79
- inhibition (Trypsin (Homo sapiens)): < 20%
- inhibition [3]: 77.7%
- inhibition [4]: < 20%

Compound: N=C(N)NCCC[C@H](NC(=O)c1ccccc1)C(=O)N[C@@H](CCCCN)C(=O)N[C@@H](C(N)=O)c1ccc(OCc2ccccc2)cc1
- Time (Genome polyprotein [8]): 7 h

Compound: Cc1ccc(N2C[C@H](NC(=O)[C@H](NC(=O)[C@H](CCCCN)NC(=O)[C@H](CCCNC(=N)N)NC(=O)c3ccccc3)c3ccc(OCc4ccccc4)cc3)C2=O)cc1
- inhibition [1]: 60.3%
- pIC50 (Genome polyprotein [2]): 5.57
- inhibition [3]: 95.9%

Compound: COc1cccc(COc2ccc([C@@H](NC(=O)[C@H](CCCCN)NC(=O)[C@H](CCCNC(=N)N)NC(=O)c3ccc(-c4cccs4)s3)C(N)=O)cc2)c1
- Activity (dengue virus type 2 [9]): Active
- inhibition [10]: Active

Compound: N=C(N)NCCC[C@H](NC(=O)c1ccccc1)C(=O)N[C@@H](CCCCN)C(=O)N[C@@H](C(=O)N[C@H]1CN(c2ccccc2)C1=O)c1ccc(OCc2ccccc2)cc1
- inhibition [1]: 60.1%
- pIC50 (Genome polyprotein [2]): 5.64
- inhibition [11]: inactive
- inhibition [12]: Dose-dependent effect
- Activity (dengue virus type 2 [13]): inactive
- Time (Genome polyprotein [8]): 14 h
- pEC50 (dengue virus type 2 [6]): 4.93
- inhibition [14]: Active
- inhibition [15]: inactive
- inhibition [3]: 96%
- inhibition [16]: Active
- Activity (Huh-7): Non-Toxic

Compound: NCCCC[C@H](NC(=O)c1ccccc1)C(=O)N[C@@H](CCCCN)C(=O)N[C@@H]1CN(c2ccccc2)C1=O
- inhibition [1]: 51.7%
- inhibition (Trypsin (Homo sapiens)): > 20%
- inhibition [3]: 39.7%

Compound: N[C@@H](C(=O)N[C@H]1CN(c2ccccc2)C1=O)c1ccc(OCc2ccccc2)cc1
- Activity [7]: Active

Compound: N=C(N)NCCC[C@H](NC(=O)c1ccccc1)C(=O)N[C@@H](CCCCN)C(=O)N[C@@H](C(=O)N[C@@H]1CN(c2ccccc2)C1=O)c1ccc(OCc2ccccc2)cc1
- inhibition [1]: 46.9%
- inhibition (Trypsin (Homo sapiens)): < 20%
- inhibition [3]: 68.8%
- inhibition [4]: < 20%
